From PubChem BioAssay (NCI)
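Cultured in 96-well plates, cells were exposed to test compound for 48 hours across five concentrations. GI50 is the concentration that inhibits growth by half. At the TGI there is no net growth.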

Experiments:
Assay in all cases: NCI tumour cell line growth inhibition, 48 h; in the data active = GI50 below about 0.43 µM; inactive = the rest
[1] = test system: SNB-19 CNS
[2] = test system: SF-268 CNS
[3] = test system: HL-60(TB) leukemia
[4] = test system: NCI/ADR-RES ovarian
[5] = test system: HOP-92 NSCLC
[6] = test system: NCI-H23 lung
[7] = test system: LOX IMVI melanoma
[8] = test system: SF-539 CNS
[9] = test system: CAKI-1 renal
[10] = test system: SK-OV-3 ovarian

CNC(=O)Nc1ccccc1
> 100 µM: TGI [1] | TGI [2] | TGI [3] | TGI [4] | TGI [5] | TGI [6] | TGI [7] | TGI [8] | TGI [9]

Nc1nc(=O)n(CC(O)CO)s1 (stereo not given)
> 100 µM: TGI [1] | TGI [2] | TGI [3] | TGI [6] | TGI [7] | TGI [8]

C[N+](C)(CCO)CCN1c2ccccc2Sc2ccccc21
> 10 µM: TGI [1] | TGI [2] | TGI [3] | TGI [4] | TGI [6] | TGI [7] | TGI [10] | TGI [8] | TGI [9]

CC(=O)C1=C(O)CCC1=O
> 100 µM: TGI [1] | TGI [2] | TGI [3] | TGI [4] | TGI [5] | TGI [6] | TGI [7] | TGI [10] | TGI [8] | TGI [9]

COc1cc2c(cc1OCCCN1CCN(c3ncnc4ccccc34)CC1)N=CC1CCCN1C2=O (stereo not given)
0.0819 µM: TGI [6]
7.11 µM: TGI [4]
0.0696 µM: TGI [8]
0.0529 µM: TGI [5]
6.78 µM: TGI [10]
0.625 µM: TGI [2]
active: GI50 [1] 0.041 µM | GI50 [2] 0.0339 µM | GI50 [3] 0.0307 µM | GI50 [4] 0.373 µM | GI50 [5] 0.0199 µM | GI50 [6] 0.0268 µM | GI50 [10] 0.0326 µM | GI50 [8] 0.0271 µM | GI50 [9] 0.0191 µM
0.0574 µM: TGI [9]
11.2 µM: TGI [1]

C[C@]12CCC(=O)C=C1CC[C@@H]1[C@@H]2[C@@H](O)C[C@@]2(C)[C@H]1CC[C@]2(O)C(=O)COC(=O)C1CCCC1
> 100 µM: TGI [1] | TGI [2] | TGI [3] | TGI [4] | TGI [5] | TGI [6] | TGI [7] | TGI [10] | TGI [8] | TGI [9]

O=C(NNC(=O)c1nsc2ccccc12)c1ccc(Cl)cc1
49.8 µM: TGI [3]
32.8 µM: TGI [5]
41.3 µM: TGI [2]
42.3 µM: TGI [1]
59.9 µM: TGI [6]
36.5 µM: TGI [7]
41.9 µM: TGI [8]

COc1ccc2nc3ccccc3c(NCc3ccc(C)cc3)c2c1
4.98 µM: TGI [4]
4.58 µM: TGI [3]
2.98 µM: TGI [9]
2.95 µM: TGI [7]
3.12 µM: TGI [5]
5.44 µM: TGI [2]
inactive: GI50 [1] 2.97 µM | GI50 [2] 2.27 µM | GI50 [3] 2.03 µM | GI50 [4] 1.79 µM | GI50 [5] 1.27 µM | GI50 [6] 1.68 µM | GI50 [7] 1.54 µM | GI50 [10] 2.58 µM | GI50 [8] 1.68 µM | GI50 [9] 1.59 µM
4.26 µM: TGI [6]
3.18 µM: TGI [8]
11.4 µM: TGI [1]
8.41 µM: TGI [10]

Cn1c(=O)c2c(nc(NCCNc3nc4c(c(=O)n(C)c(=O)n4C)n3C)n2C)n(C)c1=O
> 100 µM: TGI [1] | TGI [2] | TGI [4] | TGI [5] | TGI [6] | TGI [7] | TGI [9]

O=S(O)c1cc(Cl)cc(Cl)c1OCc1ccccc1
> 100 µM: TGI [1] | TGI [2] | TGI [3] | TGI [6] | TGI [7] | TGI [10] | TGI [8]

COc1cc2c(cc1OC)-c1cc3ccc(OC)c(OC)c3c[n+]1CC2
68 µM: TGI [1]
> 100 µM: TGI [2] | TGI [3] | TGI [4] | TGI [5] | TGI [10] | TGI [8] | TGI [9]
